Drawing on PubChem BioAssay AID602129 (The Scripps Research Institute Molecular Screening Center, 2011), this text covers EC50 for 34 compounds.

Structures are written as SMILES. Active and inactive are the calls of the source. No rule for the calls is given here.

In general, EC50 refers to the midpoint of the concentration-response curve.

Mucolipin-3 (Homo sapiens), sequence (Q8TDD5 whole entry, looked up): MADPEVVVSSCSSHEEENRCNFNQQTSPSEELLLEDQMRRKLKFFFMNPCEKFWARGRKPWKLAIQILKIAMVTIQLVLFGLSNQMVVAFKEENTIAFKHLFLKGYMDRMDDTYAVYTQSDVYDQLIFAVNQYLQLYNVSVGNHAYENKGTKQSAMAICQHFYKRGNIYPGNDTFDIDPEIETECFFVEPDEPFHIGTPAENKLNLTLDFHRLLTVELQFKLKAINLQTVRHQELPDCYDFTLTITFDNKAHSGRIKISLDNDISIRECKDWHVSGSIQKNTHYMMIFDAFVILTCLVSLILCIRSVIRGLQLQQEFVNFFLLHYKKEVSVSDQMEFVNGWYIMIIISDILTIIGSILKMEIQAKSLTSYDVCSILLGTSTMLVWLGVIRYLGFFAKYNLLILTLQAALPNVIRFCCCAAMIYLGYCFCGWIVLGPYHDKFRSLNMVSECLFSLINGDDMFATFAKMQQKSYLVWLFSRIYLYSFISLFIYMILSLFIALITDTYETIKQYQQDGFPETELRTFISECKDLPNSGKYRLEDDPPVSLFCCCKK

The experiment addresses Mucolipin-3 (Homo sapiens) (UniProt Q8TDD5). The experiment in a line: activators of human MCOLN3 channel – cell-based, fluorescence, dose response, round 3, late-stage follow-up (AID 602129). To be noted: HEK293 TRPML3 cells, calcium fluorescence.
In the case of `Cc1onc(-c2ccc(Cl)cc2)c1-c1ccn(S(=O)(=O)c2cccc(Cl)c2)n1`, the EC50 was 1.95 µM.
For `CCOc1ccc(S(=O)(=O)N2CCOCC2)c2ccccc12`, the EC50 is > 29.9 µM (inactive).
To `CCOc1ccc(S(=O)(=O)N(CC)CC)c2ccccc12` belongs > 29.9 µM (inactive).
The figure for `CCOc1ccc(S(=O)(=O)N2CCCCC2)c2ccccc12` is 3.46 µM; for `Cc1onc(-c2ccc(Cl)cc2)c1-c1ccnn1S(=O)(=O)c1ccc(Cl)cc1` it is > 29.9 µM (inactive); for `CCCCNS(=O)(=O)c1ccc(OCC)c2ccccc12` it is > 29.9 µM (inactive).
The figure for `Cc1ccccc1S(=O)(=O)n1ccc(-c2c(-c3ccc(Cl)cc3)noc2C)n1` is 4.86 µM; for `CCOc1ccc(S(=O)(=O)N2CCN(c3ccccc3Cl)CC2)c2ccccc12` it is > 29.9 µM (inactive).
For the compound `COc1ccc(-c2noc(C)c2-c2ccn(S(=O)(=O)c3ccc(C)cc3)n2)cc1`, the EC50 was 2.99 µM.
To `COc1ccc(S(=O)(=O)N2CCCCCC2)c2ccccc12` belongs 0.476 µM.
The figure for `Cc1ccc(S(=O)(=O)n2ccc(-c3c(-c4ccc(F)cc4)noc3C)n2)cc1` is 0.68 µM.
To `Cc1onc(-c2ccc(Cl)cc2)c1-c1ccn(S(=O)(=O)c2cccc3cccnc23)n1` belongs > 29.9 µM (inactive).
Regarding `Cc1onc(-c2ccc(Cl)cc2)c1-c1ccn(S(=O)(=O)c2ccccc2Cl)n1`, the EC50 is 1.53 µM.
To `COc1ccc(S(=O)(=O)n2ccc(-c3c(-c4ccc(Cl)cc4)noc3C)n2)cc1` belongs 3.78 µM.
The figure for `CCOc1ccc(S(=O)(=O)N2CCSCC2)c2ccccc12` is > 29.9 µM (inactive).
The figure for `CCOc1ccc(S(=O)(=O)N2CCCC2)c2ccccc12` is > 29.9 µM (inactive); for `Cc1onc(-c2ccc(Cl)cc2)c1-c1ccn(S(=O)(=O)c2cccs2)n1` it is > 29.9 µM (inactive).
In the case of `Cc1onc(-c2ccc(Cl)cc2)c1-c1ccn(S(=O)(=O)c2ccc(C(F)(F)F)cc2)n1`, the EC50 was > 29.9 µM (inactive).
To `CCOc1ccc(S(=O)(=O)NCc2ccc(OC)cc2)c2ccccc12` belongs > 29.9 µM (inactive).
As for `Cc1onc(-c2ccccc2)c1-c1ccnn1S(=O)(=O)c1ccc(Cl)cc1`, the EC50 was > 29.9 µM (inactive).
The figure for `Cc1ccc(S(=O)(=O)n2nccc2-c2c(-c3ccccc3)noc2C)cc1` is > 29.9 µM (inactive); for `CCOc1ccc(S(=O)(=O)n2ccc(-c3c(-c4ccc(Cl)cc4)noc3C)n2)c2ccccc12` it is > 29.9 µM (inactive); for `Cc1onc(-c2ccc(Cl)cc2)c1-c1ccn(S(C)(=O)=O)n1` it is > 29.9 µM (inactive).
Take `Cc1onc(-c2ccc(Cl)cc2)c1-c1ccn(S(=O)(=O)c2cccc(C(F)(F)F)c2)n1`: the EC50 was 3.34 µM.
To `Cc1onc(-c2ccc(Cl)cc2)c1-c1ccn(S(=O)(=O)C(F)(F)F)n1` belongs > 29.9 µM (inactive).
The figure for `Cc1onc(-c2ccc(Cl)cc2)c1-c1ccn(S(=O)(=O)c2ccccc2)n1` is 2.39 µM; for `CCOc1ccc(S(=O)(=O)NCc2ccncc2)c2ccccc12` it is > 29.9 µM (inactive).
To `CC(C)Oc1ccc(S(=O)(=O)N2CCCCCC2)c2ccccc12` belongs “inactive”; to `CCOc1ccc(S(=O)(=O)N2CCN(C(=O)OC(C)(C)C)CC2)c2ccccc12`, > 29.9 µM (inactive); to `Cc1onc(-c2ccc(Cl)cc2)c1-c1ccn(S(=O)(=O)c2ccc(Cl)cc2)n1`, “inactive”.
Consider `Cc1ccc(S(=O)(=O)n2ccc(-c3c(-c4ccccc4)noc3C)n2)cc1`, for which the EC50 is 1.46 µM.
To `Cc1onc(-c2ccc(Cl)cc2)c1-c1ccn(S(=O)(=O)c2ccccc2C(F)(F)F)n1` belongs 3.58 µM; to `Cc1onc(-c2ccccc2)c1-c1ccn(S(=O)(=O)c2ccc(Cl)cc2)n1`, > 29.9 µM (inactive).
To `Cc1onc(-c2ccc(Cl)cc2)c1-c1ccnn1S(=O)(=O)c1cccc(C(F)(F)F)c1` belongs > 29.9 µM (inactive).
